Results taken from patent publication US20210221784A1, “COMPOUNDS AND COMPOSITIONS FOR THE TREATMENT OF PAIN” (Université de Strasbourg, priority 2018, published 2021).

Legend:
[1] = target: T1, human NPFFR1 (hNPFFR1) receptor (Homo sapiens, UniProt Q9GZQ6); assay: Human NPFFR1 evaluation using BRET biosensors in HEK-293 T cells; assay type: cell-based; conditions: hNPFFR1 in HEK-293 T cells, stimulated by EC80 RFRP-3, read-out: IC50 of antagonist activity
T1 construct: expressed in transfected cells; host or cells: HEK-293 T cells, transient co-transfection
T1 sequence (Q9GZQ6 whole entry): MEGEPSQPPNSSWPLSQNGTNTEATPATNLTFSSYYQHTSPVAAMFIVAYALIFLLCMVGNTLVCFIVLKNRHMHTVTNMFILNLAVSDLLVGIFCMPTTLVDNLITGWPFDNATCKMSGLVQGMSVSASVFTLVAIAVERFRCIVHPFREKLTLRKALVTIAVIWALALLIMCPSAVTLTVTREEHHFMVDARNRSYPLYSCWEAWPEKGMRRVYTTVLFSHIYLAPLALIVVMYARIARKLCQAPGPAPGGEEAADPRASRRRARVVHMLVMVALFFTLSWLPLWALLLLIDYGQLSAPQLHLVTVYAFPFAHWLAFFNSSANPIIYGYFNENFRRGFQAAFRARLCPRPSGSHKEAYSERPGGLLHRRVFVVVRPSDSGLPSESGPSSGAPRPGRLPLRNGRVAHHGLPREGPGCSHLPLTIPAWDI
Outline: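 HEK-293 T cells transiently co-expressing hNPFFR1, GαoB and a Gi-effector BRET biosensor pair; agonist read after 10 min compound alone, then antagonism after EC80 RFRP-3 for 10 min. IC50 from 20-point curves over 6 logs, duplicates in two independent experiments.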

C57BF6/N male mice [2] = assay: Fentanyl-induced hyperalgesia, tail immersion test; assay type: in vivo; conditions: for Hyperalgesia index (HI) d1 to d4: 1j 5 mg/kg p.o. or vehicle 35 min before fentanyl 4×60 μg/kg s.c.
[3] = system: NPFFR1 KO and wild-type littermates; assay: Morphine-induced hyperalgesia and tolerance in NPFF1R knockout mice and WT littermates; assay type: in vivo
C57BF6/N male mice [4] = assay: Incisional pain model, Von Frey test; assay type: in vivo
[5] = Solubility in dosing vehicle; assay type: physicochemical; conditions: Tween 80 (0.5%) or Kolliphor EL (10%)
hNPFFR1 = target: T2, hNPFFR1 (Homo sapiens, UniProt Q9GZQ6); assay: Radioligand binding competition, membranes from CHO cells expressing hNPFFR1; conditions: 0.015 nM [D-Tyr1[125I], N-MePhe3]-NPFF, 1 hr at 25° C., read-out: NPFF1-R Ki
T2 construct: expressed in transfected cells; membranes
T2 sequence (Q9GZQ6 whole entry): as above
Outline: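 CHO membranes (5–10 μg protein) stably expressing hNPFFR1 or hNPFFR2 incubated 1 h at 25 °C with 0.015 nM [D-Tyr1[125I], N-MePhe3]-NPFF in HEPES pH 7.4 with Ca2+, Mg2+, 0.1% BSA. Non-specific binding defined with 10 μM RFRP-3; bound radioactivity counted after GF/B filtration.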

C57BF6/N male mice [6] = assay: Morphine-induced hyperalgesia and tolerance, tail immersion test; assay type: in vivo

SMILES: Nc1ccc(-c2cccc(Cl)c2Cl)c(N)n1 [Compound 1j, 3-(2,3-dichlorophenyl)pyridine-2,6-diamine]
- IC50 [1]: 100 to 500 nM
- fentanyl hyperalgesia (hyperalgesia index d1 to d4) (C57BF6/N male mice [2]; 5 mg/kg sc. 20 min before fentanyl 4×60 μg/kg sc., FIG. 6B): significant anti-hyperalgesic effect
- development of hyperalgesia induced by fentanyl, dose effect (C57BF6/N male mice [2]; 0.2, 1 and 5 mg/kg, sc, 20 min before fentanyl, FIG. 1E, F): dose-dependently prevented
- analgesic effect of fentanyl (AUC) (C57BF6/N male mice [2]; 1j 5 mg/kg p.o. in Kolliphor EL or vehicle before fentanyl 4×60 μg/kg s.c., FIG. 1C): 11.4±3
- ED50 (C57BF6/N male mice [2]; Mus musculus, sc, doses 0.2, 1 and 5 mg/kg, FIG. 1E, read-out: ED50, prevention of fentanyl-induced hyperalgesia): ~0.5 mg/kg
- effect of compound alone on basal nociceptive response (C57BF6/N male mice [2]; mice, tail immersion 48° C., FIG. 1A): did not have any effect
- Hyperalgesia index (HI) d1 to d4 (C57BF6/N male mice [2]; vehicle Kolliphor EL): −1.8±1.2
- Hyperalgesia index (HI) d1 to d4 (C57BF6/N male mice [2]; vehicle tween 80): 2.2±0.3
- morphine-induced hyperalgesia in NPFF1R KO mice ([3]; NPFF1R KO, 1j 5 mg/kg oral before daily morphine 10 mg/kg s.c., FIG. 5B, C): did not show any significant effect
- morphine-induced hyperalgesia in WT mice ([3]; WT littermates, 1j 5 mg/kg oral before daily morphine 10 mg/kg s.c., FIG. 5B, C): significantly attenuated this hyperalgesia
- morphine analgesia at day 8 in WT mice (tolerance) ([3]; WT littermates, morphine 5 mg/kg s.c., 1j 5 mg/kg oral, FIG. 5D): failed to restore morphine analgesia at day 8
- mechanical allodynia after paw incision (allodynia index d1-d6), drug alone (C57BF6/N male mice [4]; morphine 2.5 mg/kg sc. alone or 1j 5 mg/kg po alone, FIG. 3B): slightly attenuated but not significantly the mechanical allodynia
- mechanical allodynia after paw incision (allodynia index d1-d6), pre-treatment before morphine (C57BF6/N male mice [4]; mouse, in vivo): significantly enhanced morphine effect at preventing the mechanical allodynia
- solubility in vehicle (Kolliphor EL vs Tween 80) [5]: better solubility in Kolliphor EL
- Ki (hNPFFR1): 20 ± 2 nM
- Hyperalgesia index (HI) d1 to d7 (C57BF6/N male mice [6]; daily morphine 10 mg/kg s.c., 1j 5 mg/kg oral or vehicle before morphine, FIG. 2B): 0.1±3
- morphine analgesia at day 0, effect of co-administration (C57BF6/N male mice [6]; mouse, in vivo): not significantly modified
- peak of analgesia at day 0 (C57BF6/N male mice [6]; mouse, in vivo): 19±0.8
- peak of analgesia at day 8 (C57BF6/N male mice [6]; mouse, in vivo): 14±0.9
